Assay results: ChEMBL document CHEMBL2177061, “Factors influencing the specificity of inhibitor binding to the human and malaria parasite dihydroorotate dehydrogenases” (J Med Chem, 2012)
Numbering of substitutions follows the chain as printed.

Experiments:
[1] = system: T1, Dihydroorotate dehydrogenase (quinone), mitochondrial (Plasmodium falciparum (isolate 3D7)), Q08210 [F188Y]; assay: Inhibition of Plasmodium falciparum […] dehydrogenase F188Y mutant expressed in Escherichia coli BL21(DE3) using […] as substrate at 100 uM by DCIP-based colorimetric analysis
T1 sequence (whole entry): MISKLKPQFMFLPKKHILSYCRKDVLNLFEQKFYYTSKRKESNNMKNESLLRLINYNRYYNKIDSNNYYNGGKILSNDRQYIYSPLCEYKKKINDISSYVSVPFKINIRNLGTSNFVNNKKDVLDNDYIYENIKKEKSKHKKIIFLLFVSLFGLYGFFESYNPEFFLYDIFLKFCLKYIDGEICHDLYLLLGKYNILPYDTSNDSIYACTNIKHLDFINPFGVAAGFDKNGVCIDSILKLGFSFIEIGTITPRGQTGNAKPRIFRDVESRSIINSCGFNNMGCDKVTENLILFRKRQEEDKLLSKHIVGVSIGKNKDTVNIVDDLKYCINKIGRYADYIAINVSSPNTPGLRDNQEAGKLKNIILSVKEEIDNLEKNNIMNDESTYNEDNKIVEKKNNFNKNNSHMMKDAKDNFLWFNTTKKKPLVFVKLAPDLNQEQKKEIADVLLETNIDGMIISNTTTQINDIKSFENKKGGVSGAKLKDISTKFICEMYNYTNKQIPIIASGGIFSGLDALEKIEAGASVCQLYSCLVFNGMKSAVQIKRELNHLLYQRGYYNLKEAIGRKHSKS

[2] = target: T2, Dihydroorotate dehydrogenase (Plasmodium falciparum, UniProt Q54A96); assay: Inhibition of Plasmodium falciparum […] dehydrogenase expressed in Escherichia coli BL21(DE3) using […] as substrate by DCIP-based colorimetric analysis
T2 sequence (Q54A96 whole entry): T1 sequence (whole entry) with Y188F

[3] = target: Dihydroorotate dehydrogenase (quinone), mitochondrial (Homo sapiens, UniProt Q02127); assay: Inhibition of human […] dehydrogenase expressed in Escherichia coli BL21(DE3) using […] as substrate by DCIP-based colorimetric analysis
Chain of Dihydroorotate dehydrogenase (quinone), mitochondrial (Q02127 whole entry): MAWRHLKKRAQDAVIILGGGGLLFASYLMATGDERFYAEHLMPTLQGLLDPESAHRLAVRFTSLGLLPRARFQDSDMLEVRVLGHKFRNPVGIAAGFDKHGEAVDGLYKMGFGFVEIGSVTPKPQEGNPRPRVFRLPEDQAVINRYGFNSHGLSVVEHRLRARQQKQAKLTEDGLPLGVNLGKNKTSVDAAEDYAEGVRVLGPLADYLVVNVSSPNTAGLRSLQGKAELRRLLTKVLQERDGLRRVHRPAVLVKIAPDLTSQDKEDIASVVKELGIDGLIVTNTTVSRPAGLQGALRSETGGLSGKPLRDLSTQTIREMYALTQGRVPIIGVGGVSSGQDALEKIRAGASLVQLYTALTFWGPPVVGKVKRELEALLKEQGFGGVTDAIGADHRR

## CCc1cc(O)n2nc(SCc3cc(Cl)ccc3Cl)nc2n1
[1]
  inhibition: < 50%
[2]
  IC50: > 100 µM
[3]
  IC50: 0.013 µM
